Several values for one entry are separate records, joined by “and”; a condition that tells them apart may be missing. Equal values may be shown once. Where a name gives a salt, the structure may show the parent alone. Read-outs that look alike come from different tables or passages of the source.
How the values were obtained:
recombinant human AChE [1] = target: T1, recombinant human AChE (Homo sapiens, UniProt P22303); assay: biochemical
recombinant human AChE [2] = target: T1, recombinant human AChE; assay: biochemical; remark: listed apart in the source
AChE in SH-SY5Y cells = AChE in SH-SY5Y cells (Homo sapiens, UniProt P22303); assay: cell-based
AChE in SH-SY5Y cells, sequence (P22303 32-614): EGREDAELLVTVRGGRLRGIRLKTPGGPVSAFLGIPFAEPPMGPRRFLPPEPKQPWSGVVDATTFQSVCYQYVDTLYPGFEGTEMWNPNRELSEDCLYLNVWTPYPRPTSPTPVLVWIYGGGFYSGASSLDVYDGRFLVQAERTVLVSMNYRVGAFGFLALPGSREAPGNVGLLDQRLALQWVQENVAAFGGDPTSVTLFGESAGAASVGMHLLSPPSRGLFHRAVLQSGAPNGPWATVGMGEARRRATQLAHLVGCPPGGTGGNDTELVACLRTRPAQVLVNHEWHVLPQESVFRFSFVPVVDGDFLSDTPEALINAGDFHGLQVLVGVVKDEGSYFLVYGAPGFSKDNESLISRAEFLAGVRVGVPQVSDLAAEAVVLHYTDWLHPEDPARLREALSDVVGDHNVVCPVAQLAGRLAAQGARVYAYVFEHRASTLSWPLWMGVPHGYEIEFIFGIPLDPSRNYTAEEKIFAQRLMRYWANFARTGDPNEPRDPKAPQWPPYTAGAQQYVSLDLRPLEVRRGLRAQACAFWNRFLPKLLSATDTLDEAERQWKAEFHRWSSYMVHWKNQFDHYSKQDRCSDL

[3] = target: AChE in SH-SY5Y spheroids (Homo sapiens, UniProt P22303); assay: cell-based
AChE in SH-SY5Y spheroids, sequence (P22303 32-614): as above

[4] = target: AChE in neural stem cells (Homo sapiens, UniProt P22303); assay: cell-based
AChE in neural stem cells, sequence (P22303 32-614): as above

[5] = target: AChE in neural stem cell spheroids (Homo sapiens, UniProt P22303); assay: cell-based; conditions: for IC50: potency (IC50)
AChE in neural stem cell spheroids, sequence (P22303 32-614): as above

recombinant human AChE [6] = target: T1, recombinant human AChE; assay: biochemical; assay type: biochemical; conditions: for AC50: AC50 (uM)
recombinant human AChE [7] = target: T1, recombinant human AChE
recombinant human AChE [8] = target: T1, recombinant human AChE; assay: biochemical; remark: listed apart in the source
[9] = potency (IC50), SH-SY5Y cells monolayer
[10] = potency (IC50), SH-SY5Y spheroids (24 h)
[11] = potency (IC50), SH-SY5Y spheroids (48 h)
[12] = Neural stem cell spheroid (24 h)
[13] = Neural stem cell spheroid (48 h)
[14] = potency (IC50), Enzyme with microsomes
Throughout, for IR or R: key: Reversible (R); Irreversible (IR); ND, not detected in enzyme-based AChE inhibition assay from current study.

T1 sequence (P22303 32-614): as above

Row | Structure (SMILES) | IC50 (recombinant human AChE [1]; potency (IC50), Enzyme) [µM] | IC50 (recombinant human AChE [2]) [µM] | CC-v2 (curve classes) (AChE in SH-SY5Y cells) | IC50 (AChE in SH-SY5Y cells; IC50 (uM)) | IC50 (AChE in SH-SY5Y cells; [9]) [µM] | IC50 [3, 10] [µM] | IC50 [3, 11] [µM] | IC50 [4] [µM] | IC50 [5, 12] [µM] | IC50 [5, 13] [µM] | AC50 (recombinant human AChE [6]; activity_5) | AC50 (recombinant human AChE [6]; activity_10) | AC50 (recombinant human AChE [6]; activity_60) | CC-v2 (curve classes) (recombinant human AChE [7]) | IC50 (recombinant human AChE [8]; [14]) [µM] | CC-v2 (curve classes) (recombinant human AChE [1]) | Efficacy (recombinant human AChE [1]) | AC50 (recombinant human AChE [6]) | Efficacy (recombinant human AChE [7]) | further results
1 | CCOP(=S)(OCC)Oc1ccc([N+](=O)[O-])cc1 [Parathion] | 22.8 | 18 ± 2.29 | -2.1 | 13.8 µM and 64.1 µM and 71.9 µM | 11.3 | 18.1 | 10.6 | 6.88 | 3.9 | 9.13 | 24.3 µM and 30.6 µM | 27.3 µM and 24.3 µM | 21.7 µM and 19.3 µM | -1.1 | 1.27 |  |  |  |  | 
2 | CNC(=O)ON=C(CSC)C(C)(C)C [Thiofanox] | 1.91 ± 0.26 | 3.18 ± 0.59 | -1.1 | 1.59 µM and 1.78 µM | 3.04 ± 0.41 | 6.89 ± 6.18 | 3.46 ± 0.86 | 4.83 ± 0.82 | 2.83 ± 0.59 | 3.64 |  |  |  | -1.1 | 2.59 ± 0.17 | -1.1 | -92.082 | 2.8 µM and 4.44 µM and 4.98 µM and 3.95 µM and 2.22 µM and 1.4 µM and 1.98 µM | -91.728 | 
3 | CCOP(=S)(OCC)SC(CCl)N1C(=O)c2ccccc2C1=O (centres unmarked) [Dialifor] | 41.1 | 28.1 ± 3.23 | -2.1 | 31.7 µM | 14.6 | 25.7 | 15.7 | 15.2 | 9.74 | 20.1 |  |  |  | -1.1 | 2.69 | -2.1 | -100.017 |  | -102.338 | reversibility of AChE inhibition (result in words) (recombinant human AChE [6]): irreversibility
4 | CCOP(=O)(Sc1ccccc1)Sc1ccccc1 [Edifenphos] | 4.79 ± 0.31 | 3.03 ± 0.2 | -1.1 | 3.99 µM and 3.17 µM and 5.02 µM | 1.73 ± 0.43 | 4.79 ± 1.57 | 2.08 ± 0.37 | 1.31 ± 0.23 | 0.88 ± 0.1 | 1.21 ± 0.17 |  |  |  | -3 | 7.31 ± 0.49 | -2.1 | -122.577 | 28 µM and 62.7 µM and 31.4 µM (2×) and 25 µM and 49.8 µM and 35.2 µM | -113.282 | 
5 | CCOP(=O)(OCC)Oc1cc(C)nc(C(C)C)n1 [Diazoxon] | 1.12 ± 0.12 | 2.25 ± 0.26 | -1.1 | 0.143 µM and 0.179 µM and 0.201 µM | 0.26 ± 0.03 | 2.3 ± 0.96 |  | 0.24 ± 0.04 | 0.22 | 0.39 ± 0.07 |  |  |  | -1.1 | 3.69 ± 0.24 | -1.1 | -95.835 | 44.6 µM | -95.678 | IC50 ([3]; read-out: potency (IC50), SH-SY5Y spheroids (48 h)): 0.5 µM
6 | O=C(c1ccc(OCCN2CCCCC2)cc1)c1c(-c2ccc(O)cc2)sc2cc(O)ccc12 [Raloxifene hydrochloride, reference compound] | 2.14 ± 0.13 | 3.43 ± 0.58 | -1.1 and -2.1 | 27.5 µM and 25.2 µM and 31.7 µM | 4.29 ± 0.59 | 1.03 ± 0.78 | 4.19 ± 0.94 | 14.1 ± 1.61 | 6.29 ± 0.72 | 9.85 | 1.57 µM and 2.22 µM and 1.11 µM | 1.57 µM and 1.4 µM and 3.14 µM | 1.25 µM and 1.11 µM and 2.22 µM | -1.1 | 3.42 ± 0.58 | -1.1 |  |  |  | IR or R (recombinant human AChE [6]): R
7 | CCOP(=S)(OCC)SCn1c(=O)oc2cc(Cl)ccc21 [Phosalone] |  |  | -2.2 | 56.4 µM and 48.1 µM and 35.6 µM and 76.2 µM |  | 66.3 | 50 | 17.1 | 9.61 | 10.5 | 55.9 µM and 35.2 µM | 55.9 µM and 62.7 µM and 49.8 µM | 62.7 µM and 55.9 µM | -1.1 | 2.91 | 4 |  |  |  | AChE inhibition (result in words) (recombinant human AChE [1]): did not show effects; potency (IC50), Enzyme (recombinant human AChE [1]): Inactive; potency (IC50), Enzyme-based assay with heat-inactivated microsomes (recombinant human AChE [2]): Inactive; potency (IC50), SH-SY5Y cells monolayer (AChE in SH-SY5Y cells): Inactive; IC50 (recombinant human AChE [8]; IC50 (uM)): 3.99 µM and 8.55 µM
8 | CCOP(=S)(OCC)SCn1nnc2ccccc2c1=O [Azinphos-ethyl] | 42.8 | 22.5 ± 4.21 | -1.1 | 12.6 µM and 11.2 µM and 15.9 µM | 10.9 | 25.2 | 12 | 4.79 | 2.23 | 4.36 |  |  |  | -1.1 | 2.14 | -2.1 | -105.247 | 49.8 µM (2×) and 55.9 µM (2×) and 70.3 µM and 39.5 µM and 44.4 µM | -98.316 | 
9 | CNC(=O)Oc1ccccc1C(C)C [Isoprocarb] | 6.55 ± 0.83 | 9.21 ± 0.62 | -1.1 | 3.56 µM and 4.48 µM | 8.21 ± 0.55 | 5.45 ± 4.07 | 12.5 | 21 ± 9.16 |  | 39.6 |  |  |  | -2.1 | 8.53 ± 0.55 | -1.1 | -91.575 | 9.93 µM and 14 µM and 17.7 µM and 22.2 µM and 12.5 µM and 4.98 µM and 3.95 µM and 5.59 µM | -88.562 | potency (IC50), Neural stem cell spheroid (24 h) [5]: Inactive; IR or R (recombinant human AChE [6]): R
10 | Cc1nc2n(c(=O)c1CCN1CCC(C(=O)c3ccc(F)cc3)CC1)CCS2 [Setoperone, reference compound] | 14.2 ± 0.96 | 20.1 ± 1.36 | -2.1 | 13.8 µM and 12.3 µM and 15.5 µM | 16 ± 1.08 | 2.66 ± 1.88 | 13.7 ± 1.58 | 8.35 ± 1.14 |  |  | 4.32 µM and 6.11 µM and 7.69 µM | 4.85 µM and 7.69 µM and 10.9 µM | 6.11 µM and 6.85 µM | 4 | 18.6 ± 1.21 | -2.2 | -57.619 |  | 0 | IC50 (recombinant human AChE [1]; IC50 (uM)): 30.9 µM; potency (IC50), Neural stem cell spheroid (24 h) [5]: Inactive; IR or R (recombinant human AChE [6]): R
11 | COP(=O)(OC)SCn1c(=O)oc2cc(Cl)cnc21 [Azamethiphos] | 1.91 ± 0.26 | 3.81 ± 0.25 | -1.1 | 3.56 µM and 3.17 µM | 2.81 ± 0.32 | 4.05 ± 2.65 | 3.3 ± 0.59 | 4.79 ± 0.31 | 1.82 ± 0.76 | 3.08 ± 0.77 |  |  |  | -2.1 | 6.34 ± 1.18 | -1.1 | -98.261 | 11.1 µM and 15.7 µM and 14 µM and 39.5 µM and 35.2 µM and 17.7 µM and 7.03 µM and 7.89 µM and 9.93 µM | -92.198 | 
